Source: patent US10413583B2, “Synthetic substrates for enzymes that catalyze reactions of modified cysteines and related methods” (The University of Chicago, priority 2016, dated 2019)

Key:
[1] = system: MDA-MB-231 cells; experiment: Flow cytometry of DPP-3 in MDA-MB-231 cells; format: cell-based, human; conditions: MDA-MB-231; 5 μM DPP-3, 5 min, flow cytometry
Protocol: (§1) Cells were plated on a 10 cm dish with 10 mL of DMEM/High Glucose (10% FBS, 1% P/S, L-Glutamine, Sodium pyruvate) 36-48 hours prior to the day of experiment and maintained at 37° C., 5% CO2 so as to obtain 80-90% confluency. Cells were washed with DPBS and trypsinized with 1 mL 0.05% Trypsin. 5 mL of DMEM/High Glucose (10% FBS, L-Glutamine, Sodium pyruvate) was added and cells were spun down at 1200 rpm for 3 min. Media was discarded and cells were resuspended in 5 mL of Live Cell Imaging Solution and again spun down at 1200 rpm for 3 min. The cells pellets obtained were resuspended in 3-5 mL of Live Cell Imaging Solution and divided into 500 μL aliquots. The aliquots were treated with either 0.2% DMSO carrier or 1 μM of PalmB/ML348 or 1 μM/5 μM of ML349 inhibitor. After 30 min of incubation at room temperature, 1 μL of 2.5 mM DPP-3 in DMSO was added to each aliquot for a final concentration of 5 μM, and the solutions were mixed. After 5 min incubation at room temperature, fluorescence signal in FITC channel was measured for 10000 cells (5000 for HeLa experiments) on a LSR-Fortessa 4-15 HTS (BD digital instrument, 488 nm laser with 530/30 nm filter for FITC; BD, Franklin Lakes, N.J., United States of America). For analyzing DPP2 in HEK293T cells, the aliquots were treated with either 0.2% DMSO carrier or 2 μM of PalmB, 5 or 20 μM of ML348/ML349 and then analyzed by the protocol as mentioned above. Data was analyzed by FlowJo software version 10.0.8. For comparison of A431 starved versus non-starved, parallel 10 cm dishes of A431 cells were plated in 10 mL of DMEM (high glucose, 10% FBS, 1% P/S), and grown for 36 h. The growth media was removed, and replaced by 10 mL of either DMEM (High glucose) with 10% FBS to maintain “growth” conditions, or DMEM (High glucose) without FBS respectively for “starvation” conditions, and incubated for 14 h. After trypsinization, both plates were treated with 5 mL of DMEM (high glucose) for spinning the cells down, and further processing and analysis were performed as described above by flow cytometry.

[2] = system: HeLa cells; experiment: Flow cytometry of DPP-3 in HeLa cells; format: cell-based, human; conditions: 5 μM DPP-3, 5 min, flow cytometry
Protocol: as §1

[3] = biological target: T1, APT1 (Homo sapiens, UniProt O75608); experiment: In vitro kinetic assay and emission spectra of DPP-1, DPP-2, DPP-3 with purified APT1 (with detergent); format: biochemical
T1 construct: His-tag; made in house; host or cells: E. coli ROSETTA DE3
Protocol: 50 μL of 7.5 μM DPP1-3 in HEPES (20 mM, pH=7.4, 150 mM NaCl, 0.1% Triton X-100) were added to a 384-well black flat bottom plate (Corning Life Sciences, Corning, N.Y., United States of America) and placed in an Infinite M200 Pro (Tecan, Mannedorf, Switzerland) plate reader at 37° C. for 5 min to warm. 25 μL of either 4-(2-hydroxyethyl)-1-piperazineethanesulfonic acid (HEPES) buffer alone or HEPES buffer containing 150 nM APT1 or APT2, was added using a multi-channel pipette, resulting in a final concentration of 5 μM DPP1-3 and 50 nM APT1 or APT2. Fluorescence intensities (λex 490/9 nm, λem 545/20 nm, Gain 70, No. of flashes 25, Integration time 100 μs and Z-position 20000 μm) were measured at 30 second (s) time intervals for 20 min. At the end of 20 min kinetic run, emission spectra were obtained (λex 485 nm, Aem510-700 nm, Gain 100, No. of flashes 25, Integration time 100 μs and Z-position 20,000 μm).

[4] = system: HEK293T cells; experiment: Live cell fluorescence imaging and flow cytometry of DPP-2 and DPP-3 in HEK293T cells; format: cell-based, human; conditions: 1 μM DPP-2 for 15 min, microscopy or flow cytometry
Protocol: HEK293T (650,000 cells per dish) cells were plated with 1.5 mL of Dulbecco's Modified Eagle Medium (DMEM) (High Glucose, 10% fetal bovine serum (FBS)) in a 35 mm glass bottom dish (D35-10-1.5-N; Cellvis, Mountain View, Calif., United States of America) 24 hrs prior to imaging. 30 min before the addition of the DPP probe, the cell culture media was removed and cells were washed with 1 mL of Delbecco's phosphate-buffered saline (DPBS). The media was then replaced with 1 mL of DMEM containing 1 μM Hoechst 33342 and either 0.1% DMSO carrier as a control, 1 or 2 μM Palm B, 0.1, 1.0, or 5 μM ML348, and incubated for 30 min at 37° C. and 5% CO2. The media was removed, the cells were washed with 1 mL of Live Cell Imaging Solution (Thermo Fisher Scientific, Waltham, Mass., United States of America), and 1 mL of 1 μM DPP-2 or DPP-3 in Live Cell Imaging Solution was added to each plate. For ML348 0.1, 1.0, or 5 μM was added along with DPP-2 or DPP-3. After incubation for 15 min at 37° C. and 5% CO2, images were obtained on an inverted epi-fluorescence microscope (Olympus IX83; Olympus Corporation, Tokyo, Japan) attached with EMCCD camera (Photometrics EVOLVE™ Delta; Photometrics, Tucson, Ariz., United States of America) with 40× oil objective (N/A 1.3) for DPP-2 (excitation filter 500/20, dichroic chroma 89007, emission filter 535/30, exposure time 200 ms, EM gain 25), Hoechst 33342: (excitation filter 402/15, emission filter 455/50, dichroic chroma 89013, exposure time 30 ms, EM gain 25), and brightfield (exposure time 5 ms, EM gain 5), and for DPP-3 (exposure time 500 ms, EM gain 150), Hoechst 33342: (exposure time 30 ms, EM gain 25), and brightfield (exposure time 20 ms, EM gain 5). Analyses were performed in ImageJ. For data analysis, the average fluorescence intensity per image in each experimental condition was obtained by selecting regions of interest (ROIs) in the brightfield image. For display, the data were normalized to the average fluorescence intensity of the control conditions. Each experiment was repeated at least three separate times with identical results.
Cells were plated on a 10 cm dish with 10 mL of DMEM/High Glucose (10% FBS, 1% P/S, L-Glutamine, Sodium pyruvate) 36-48 hours prior to the day of experiment and maintained at 37° C., 5% CO2 so as to obtain 80-90% confluency. Cells were washed with DPBS and trypsinized with 1 mL 0.05% Trypsin. 5 mL of DMEM/High Glucose (10% FBS, L-Glutamine, Sodium pyruvate) was added and cells were spun down at 1200 rpm for 3 min. Media was discarded and cells were resuspended in 5 mL of Live Cell Imaging Solution and again spun down at 1200 rpm for 3 min. The cells pellets obtained were resuspended in 3-5 mL of Live Cell Imaging Solution and divided into 500 μL aliquots. The aliquots were treated with either 0.2% DMSO carrier or 1 μM of PalmB/ML348 or 1 μM/5 μM of ML349 inhibitor. After 30 min of incubation at room temperature, 1 μL of 2.5 mM DPP-3 in DMSO was added to each aliquot for a final concentration of 5 μM, and the solutions were mixed. After 5 min incubation at room temperature, fluorescence signal in FITC channel was measured for 10000 cells (5000 for HeLa experiments) on a LSR-Fortessa 4-15 HTS (BD digital instrument, 488 nm laser with 530/30 nm filter for FITC; BD, Franklin Lakes, N.J., United States of America). For analyzing DPP2 in HEK293T cells, the aliquots were treated with either 0.2% DMSO carrier or 2 μM of PalmB, 5 or 20 μM of ML348/ML349 and then analyzed by the protocol as mentioned above. Data was analyzed by FlowJo software version 10.0.8. For comparison of A431 starved versus non-starved, parallel 10 cm dishes of A431 cells were plated in 10 mL of DMEM (high glucose, 10% FBS, 1% P/S), and grown for 36 h. The growth media was removed, and replaced by 10 mL of either DMEM (High glucose) with 10% FBS to maintain “growth” conditions, or DMEM (High glucose) without FBS respectively for “starvation” conditions, and incubated for 14 h. […]

[5] = Water solubility of probes (stated in words); format: physicochemical
[6] = system: MCF-7 cells; experiment: Flow cytometry of DPP-3 in MCF-7 cells; format: cell-based, human; conditions: 5 μM DPP-3, 5 min, flow cytometry
Protocol: as §1

[7] = system: A431 cells; experiment: DPP-3 in A431 cells, starvation and EGF stimulation (flow cytometry, microscopy); format: cell-based, human; conditions: serum starved A431; 1 ng/mL EGF for 15 min; 5 μM DPP-3
Protocol: as §1
Parallel 35 mm glass bottom dishes (D35-10-1.5-N; Cellvis, Mountain View, Calif., United States of America) of A431 cells (450,000) were plated in 2 mL of DMEM glutamax (high glucose, 10% FBS, 1% P/S), and grown for 36 h. The growth media was removed, and replaced by 1.5 mL of either DMEM (High glucose) with 10% FBS to maintain “growth” conditions, or DMEM (High glucose) without FBS respectively for “starvation” conditions, and incubated for 24 h. […] For data analysis, the average fluorescence intensity per image in each experimental condition was obtained by selecting ROIs in the brightfield image. For display, the data were normalized to the average fluorescence intensity of the control conditions. […]

T1 sequence (O75608 whole entry): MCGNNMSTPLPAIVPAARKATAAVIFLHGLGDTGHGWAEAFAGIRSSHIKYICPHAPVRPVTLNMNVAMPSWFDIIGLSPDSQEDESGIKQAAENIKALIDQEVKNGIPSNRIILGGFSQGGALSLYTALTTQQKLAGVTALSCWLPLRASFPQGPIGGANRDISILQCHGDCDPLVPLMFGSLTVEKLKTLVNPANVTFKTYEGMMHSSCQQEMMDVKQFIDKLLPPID

enhancement in fluorescence signal ([3]; 5 μM probe, 50 nM APT1, 20 min) | selectivity for APT1 over APT2 ([3]; in vitro, purified APT1 vs APT2) | performance as substrate / reaction kinetics ([3]; purified APT1) | water solubility [5] | Compound | detection of endogenous depalmitoylase activities by probe [1] | detection of endogenous depalmitoylase activities by probe [2] | probe fluorescent signal in live cells [4] | detection of endogenous depalmitoylase activities by probe [6] | effect on depalmitoylation activity measured by DPP-3 [7]
400 fold | modest selectivity for APT1 over APT2 | striking reaction kinetics | water soluble | CCCCCCCC(=O)SC[C@@H](C(=O)N[C@@H](CCCCN)C(=O)OC)N(C)C(=O)Oc1ccc2c(c1)Oc1cc(N(C)C)ccc1C21OC(=O)c2ccccc21 (stereo partly drawn) [DPP-3] | can detect endogenous depalmitoylase activities | can detect endogenous depalmitoylase activities | functions in live cells | can detect endogenous depalmitoylase activities | 
 |  |  |  | EGF: epidermal growth factor, obtained from Gold Biotechnology (NSDSECPLSHDGYCLHDGVCMYIEALDKYACNCVVGYIGERCQYRDLKWWELR; UniProt P01133 971-1023, looked up) |  |  |  |  | inhibition of depalmitoylation activity
